From patent US20240043384A1, “INHIBITORS OF PU.1 FOR THE TREATMENT OF DISEASE” (Board of Regents, The University of Texas System, priority 2021, published 2024) come the findings set out here.

Structures are written as SMILES. Where only a bound is given, the exact number is not on record here.

For the test, the system named is THP-1 CD14. Description: THP-1 CD14 Screening Assay. It is filed as cell-based. The following applies: THP-1 cells treated with PMA and compound (5-point 10-fold dilution), human CD14 ELISA on media. The method, then: THP-1 CD14 Screening Assay Protocol:
5×10^4 THP-1 cells were plated per well in a tissue culture-treated 96-well plate. At the time of plating, cells were treated with a final concentration of […] PMA and 0.04% DMSO vehicle, concominant with compounds in a 5-point 10-fold dilution per compound. Cells were treated with PMA and DMSO as a control for differentiation without compound treatment, and with only DMSO as a control for no differentiation and no compound treatment. 500 nM IACS-71432 was added as a control compound across all assay plates.
After incubation at 37° C./5% CO2 for 72 hr, media was collected from the cells and the screening assay was performed using the commercially-available human CD14 SimpleStep ELISA kit from Abcam, according to the following protocol: • 1) ELISA kits were taken out to equilibrate to rt. • 2) Following the protocol listed in the kit, standards were prepared as 1:1 dilutions from 2 ng/ml. • 3) Following the protocol listed in the kit, antibody cocktail was prepared (the volume is contingent on the number of wells required). • 4) 50 μl of standards were added to the appropriate wells, thoroughly mizing the standards before adding to each well. • 5) 25 μl of Sample Diluent (from kit) was added to all sample wells. • 6) Cell plates were centrifuged for 5 min at 300 rcf, with slow acceleration and slow deceleration. • 7) 25 μl of media from cell plates was transferred to assay plates containing standards. • 8) 50 μl of antibody cocktail was added to all of the wells, standards and samples. • 9) Assay plates were sealed tightly and incubated on the plate shaker at 400 rpm for 1 hr at rt. • 10) Wash buffer was prepared following the protocol listed in the kit. • 11) After the hour incubation, assay plates were washed 5 times using 200 μl wash buffer per well per wash. • 12) 100 μl of TMB substrate was added to each well in the dark and incubated on the shaker for 3-4.min, at which point color development was monitored to ensure a robust signal for detection but to avoid oversaturation of signal, for no longer than 10 min. • 13) The absorbance at 607 nm was read on a Perkin Elmer Envision plate reader. • 14) Data was processed using Microsoft Excel and GraphPad Prism.

Take `O=S(=O)(NCc1ccncc1)c1ccc(N2CCCC2)cc1` [Example 25, N-(pyridin-4-ylmethyl)-4-(pyrrolidin-1-yl)benzenesulfonamide]: the IC50 (Homo sapiens, THP-1, 72 h) is 5 to 100 nM. `Cc1ccc(-c2ccc(S(=O)(=O)NCc3ccncc3)cc2)nc1` [Example 42, 4-(5-methylpyridin-2-yl)-N-(pyridin-4-ylmethyl)-benzenesulfonamide] registered an IC50 (Homo sapiens, THP-1, 72 h) of less than 5 nM. For the setting “Homo sapiens, THP-1, 72 h”, `O=S(=O)(NCc1ccncc1)c1ccc(C2CCC(F)(F)CC2)cc1` [Example 15, 4-(4,4-difluorocyclohexyl)-N-(pyridin-4-ylmethyl)-benzenesulfonamide] displayed an IC50 of less than 5 nM. As to `O=S(=O)(NCc1ccncc1)c1ccc(C2=CCOCC2)cc1` [Example 12, 4-(3,6-dihydro-2H-pyran-4-yl)-N-(pyridin-4-ylmethyl)-benzenesulfonamide], the IC50 (Homo sapiens, THP-1, 72 h) is 5 to 100 nM. Same read-out and setting: to `O=c1[nH]c2cc(-c3ccc(S(=O)(=O)NCc4ccncc4)cc3)ccc2o1` [Example 61, 4-(2-oxo-2,3-dihydro-benzo[d]oxazol-5-yl)-N-(pyridin-4-ylmethyl)-benzenesulfonamide] belongs 5 to 100 nM. Still for that read-out and setting: then `O=S(=O)(NCc1ccnc(F)c1)c1ccc(C2CCCCC2)cc1` [Example 8, 4-cyclohexyl-N-((2-fluoropyridin-4-yl)methyl)benzenesulfonamide], with less than 5 nM. As for `O=S(=O)(NCc1ccncc1)c1ccc(N2CCCC(F)(F)C2)cc1` [Example 27, 4-(3,3-difluoropiperidin-1-yl)-N-(pyridin-4-ylmethyl)-benzenesulfonamide], the IC50 (Homo sapiens, THP-1, 72 h) is 5 to 100 nM. On the same count and under the same terms, to `O=S(=O)(NCc1ccncc1)c1ccc(N2CCC(F)(F)CC2)cc1` [Example 23, 4-(4,4-difluoropiperidin-1-yl)-N-(pyridin-4-ylmethyl)-benzenesulfonamide] belongs 5 to 100 nM; to `O=S(=O)(NCc1ccncc1)c1ccc(-c2ccccc2)cc1` [Example 37, N-(pyridin-4-ylmethyl)-[1,1′-biphenyl]-4-sulfonamide], less than 5 nM. Still for that read-out and setting: then `O=S(=O)(NCc1ccncc1)c1ccc(C2=CCC(F)(F)CC2)cc1` [Example 14, 4′,4′-difluoro-N-(pyridin-4-ylmethyl)-2′,3′,4′,5′-tetrahydro-[1,1′-biphenyl]-4-sulfonamide], with less than 5 nM; and `O=S(=O)(NCc1ccncc1)c1ccc(-c2ccc3ncsc3c2)cc1` [Example 46, 4-(benzo[d]thiazol-6-yl)-N-(pyridin-4-ylmethyl)-benzenesulfonamide], with less than 5 nM. Consider `O=S(=O)(NCc1ccncc1)c1ccc(OCC2CCCO2)cc1` (stereo not shown) [Example 11, N-(pyridin-4-ylmethyl)-4-((tetrahydrofuran-2-yl)methoxy)benzenesulfonamide], for which the IC50 (Homo sapiens, THP-1, 72 h) was less than 5 nM. Regarding `Cc1nc2cc(-c3ccc(S(=O)(=O)NCc4ccncc4)cc3)ccc2s1` [49 (b), 4-(2-methyl-benzo[d]thiazol-5-yl)-N-(pyridin-4-ylmethyl)-benzenesulfonamide], the half-inhibitory concentration (IC50) (72 hr) lay in the range of 100 to 500 nM. `O=S(=O)(NCc1ccncc1)c1ccc(C2CCOC2)cc1` (stereo not shown) [Example 19, N-(pyridin-4-ylmethyl)-4-(tetrahydrofuran-3-yl)-benzenesulfonamide] registered an IC50 (Homo sapiens, THP-1, 72 h) of 5 to 100 nM.

The compound `O=S(=O)(NCc1ccncc1)c1ccc(-c2ccc3cccnc3c2)cc1` [Example 52, N-(pyridin-4-ylmethyl)-4-(quinolin-7-yl)benzenesulfonamide] gave an IC50 (Homo sapiens, THP-1, 72 h) of less than 5 nM. The same measure, in the same setting: then `O=S(=O)(NCc1ccncc1)c1ccc(-c2ccc3c(c2)OCCO3)cc1` [Example 55, 4-(2,3-dihydrobenzo[b]-[1,4]dioxin-6-yl)-N-(pyridin-4-ylmethyl)-benzenesulfonamide], with less than 5 nM; and `O=S(=O)(NCc1ccncc1)c1ccc(-c2cccc(Cl)n2)cc1` [Example 5, 4-(6-chloropyridin-2-yl)-N-(pyridin-4-ylmethyl)benzenesulfonamide], with 100 to 500 nM; and `O=S(=O)(NCc1ccncc1)c1ccc(C2=CCCC2)cc1` [Example 1, 4-(Cyclopent-1-en-1-yl)-N-(pyridin-4-ylmethyl)benzenesulfonamide], with 5 to 100 nM. Same read-out and setting: then `O=S(=O)(NCc1ccncc1)c1ccc(C2CCOCC2)cc1` [Example 16, N-(pyridin-4-ylmethyl)-4-(tetrahydro-2H-pyran-4-yl)-benzenesulfonamide], with less than 5 nM; and `O=S(=O)(Nc1cccc2cnccc12)c1ccc(C2CCOCC2)cc1` [Example 7, N-(Isoquinolin-5-yl)-4-(tetrahydro-2H-pyran-4-yl)enzenesulfonamide], with less than 5 nM. Still for that read-out and setting: to `Cc1nc2cc(-c3ccc(S(=O)(=O)NCc4ccncc4)cc3)ccc2o1` [Example 47, 4-(2-methyl-benzo[d]oxazol-5-yl)-N-(pyridin-4-ylmethyl)-benzenesulfonamide] belongs less than 5 nM; to `O=c1[nH]c2ccc(-c3ccc(S(=O)(=O)NCc4ccncc4)cc3)cc2o1` [Example 62, 4-(2-oxo-2,3-dihydro-benzo[d]oxazol-6-yl)-N-(pyridin-4-ylmethyl)-benzenesulfonamide], 100 to 500 nM; to `O=S(=O)(NCc1ccncc1)c1ccc(N2CCOCC2)cc1` [Example 24, 4-morpholino-N-(pyridin-4-ylmethyl)benzenesulfonamide], 100 to 500 nM. Under “Homo sapiens, THP-1, 72 h”, `Cc1ccnc(-c2ccc(S(=O)(=O)NCc3ccncc3)cc2)c1` [Example 41, 4-(4-methylpyridin-2-yl)-N-(pyridin-4-ylmethyl)-benzenesulfonamide] came in with a 50% inhibitory concentration (IC50) of less than 5 nM. Consider `CC1(C)CCN(c2ccc(S(=O)(=O)NCc3ccncc3)cc2)CC1` [Example 36, 4-(4,4-dimethylpiperidin-1-yl)-N-(pyridin-4-ylmethyl)-benzenesulfonamide], for which the IC50 (Homo sapiens, THP-1, 72 h) is less than 5 nM. The same measure, in the same setting: then `O=S(=O)(NCc1ccncc1)c1ccc(-c2ccc3ncoc3c2)cc1` [Example 45, 4-(benzo[d]oxazol-6-yl)-N-(pyridin-4-ylmethyl)-benzenesulfonamide], with less than 5 nM.

For `CC(=O)N1CCC(c2ccc(S(=O)(=O)NCc3ccncc3)cc2)C1` (stereo not shown) [Example 21, 4-(1-acetylpyrrolidin-3-yl)-N-(pyridin-4-ylmethyl)-benzenesulfonamide], the 50% inhibitory concentration (IC50) (Homo sapiens, THP-1, 72 h) was more than 500 nM. In turn, `CC1CCN(c2ccc(S(=O)(=O)NCc3ccncc3)cc2)C1` (stereo not shown) [Example 28, 4-(3-methylpyrrolidin-1-yl)-N-(pyridin-4-ylmethyl)-benzenesulfonamide] showed an IC50 (Homo sapiens, THP-1, 72 h) of 5 to 100 nM. The compound `O=S(=O)(NCc1ccncc1)c1ccc(-c2ccc3ccoc3c2)cc1` [Example 51, 4-(benzofuran-6-yl)-N-(pyridin-4-ylmethyl)-benzenesulfonamide] gave an IC50 (Homo sapiens, THP-1, 72 h) of less than 5 nM. The same measure, in the same setting: then `O=c1[nH]ccc2cc(-c3ccc(S(=O)(=O)NCc4ccncc4)cc3)ccc12` [Example 50, 4-(1-oxo-1,2-dihydro-isoquinolin-6-yl)-N-(pyridin-4-ylmethyl)-benzenesulfonamide], with 100 to 500 nM; and `O=S(=O)(NCc1ccncc1)c1ccc(-c2ccc3ocnc3c2)cc1` [Example 48, 4-(1,3-benzoxazol-5-yl)-N-[(pyridin-4-yl)methyl]benzene-1-sulfonamide], with less than 5 nM.
